`Cc1nc(-c2ccc(Cl)cc2)c(-c2ccc(Cl)cc2Cl)cc1CNS(=O)(=O)c1ccc(C(F)(F)F)cc1` registered a melting point of 98 °C.

In the case of `Cc1nc(-c2ccc(Cl)cc2)c(-c2ccc(Cl)cc2Cl)cc1CNC(=O)c1cc2ccccc2[nH]1` [Compound 3, N-{[-6-(4-chlorophenyl)-5-(2,4-dichlorophenyl)-2-methylpyridin-3-yl]methyl}-1H-indole-2-carboxamide], the melting point is 135.5 °C.

What is called melting point is the temperature of the solid-liquid transition.
